Reference: patent publication US9416099B2 (priority 2010, dated 2016)
Values joined by “and” are separate entries in the source; they are usually repeats but may differ in a detail not shown here. Equal entries are not always repeated.

How the values were obtained:
[1] = assay type: physicochemical

Structure (SMILES) | % Separation 1 h [1] | % Separation 24 h [1] | Adjuvant 1 h, mL separation (1 h) | Anionic 1 h, mL separation (1 h) | Nonionic 1 h, mL separation (1 h) | Adjuvant 24 h, mL separation | Anionic 24 h, mL separation | Nonionic 24 h, mL separation
C[N+](C)(CCCNC(=O)CCCCCCCCC(CCCCCCCC(=O)NCCC[N+](C)(C)CC(=O)[O-])S(=O)(=O)[O-])CC(=O)[O-].[Na+] (stereo not drawn) [C18-33, C18 DiBetaine Sulfonate] | 4% and 3% | 4.5% and 3.4% | 0 mL | 0 mL | 1 mL | 0 mL | 0 mL | 1 mL
CCCC(CCCCCCCC(=O)NCCC[N+](C)(C)CC(=O)[O-])S(=O)(=O)[O-].[Na+] (stereo not drawn) [C12-23, C12 DMAPA Betaine Sulfonate] | 3% | 3.5% and 3% | 0 mL | 0 mL | – | 0 mL | 0 mL | 0.25 mL
